A short description of the data set: gradient 5% acetonitrile 3 min, to 50% in 2 min, to 85% in 15 min, held 3 min, 100 µL/min. As to conditions: column: Zorbax Extend-C18 2.1 x 50 mm; eluents: water / acetonitrile, 0.1% formic acid. The procedure, abridged: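 Retention times of pure standards were taken from adduct peaks that were selected by computer and manually inspected. Over 3 months, mixtures of ~100 molecules were run by HPLC–quadrupole time-of-flight mass spectrometry in positive and negative ionization mode. The Zorbax Extend-C18 column (2.1 × 50 mm, 1.8 μm) ran at 100 μL/min in water and acetonitrile, each containing 0.1% formic acid, with 40 μL dead volume and 900 μL dwell volume.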
On to `CC(C)Cc1nc(N2CCN(C(=O)c3ccco3)CC2)c(C#N)c2c1COC(C)(C)C2`, for which the RP-LC retention time is 1180 s.
Next, `CSc1ccc(CNC(=O)CN2CCc3[nH]c4c(C)cc(C)cc4c(=O)c3C2)cc1`: 904 s; `Cc1ccc(C)c(S(=O)(=O)N2CCC(F)(c3nc(CC(C)C)no3)CC2)c1`: 1270 s.
Next, `CCn1nc(C)c(S(=O)(=O)N2CCN(C(=O)C(C)Oc3cccc(Cl)c3)CC2)c1C` (centres undefined): 850 s; `CC(C)(C)NC(=O)CN1C(=O)C2CCCCN2c2ccc(S(=O)(=O)N3CCCCC3)cc21` (centres undefined): 981 s; `Cc1nn2c(CNS(=O)(=O)c3cc(F)ccc3F)c(-c3ccccc3)nc2s1`: 848 s.
Next, `CN(C)S(=O)(=O)N(CC(=O)Nc1ccccc1C(F)(F)F)c1ccccc1`: 972 s; `COC(=O)c1ccccc1S(=O)(=O)N1CCc2c(c(-c3nnc(-c4ccc(F)cc4)o3)nn2C)C1`: 915 s; `CCCc1cc(C2CCCN2C(=O)Nc2ccc(C)cc2)no1` (centres undefined): 946 s.
For the compound `COC(=O)c1ccc(NC(=O)N2CCCC2c2cc(C)on2)cc1` (centres undefined), the RP-LC retention time stood at 739 s.
Next, `Cc1cccc(Nc2ccc(N3CCN(C(=O)Cc4c[nH]c5ccccc45)CC3)nn2)n1`: 574 s; `CCC(=O)N1CCc2cc(-c3ccc(C(=O)NC(C)C(=O)N4CCCCC4)cc3)ccc21` (centres undefined): 846 s.
Next, `COc1ccc(C2(C(=O)N3CCC(c4ncc(C)n4C(C)C)C3)CC2)cc1` (centres undefined): 530 s; `O=C1C(Cl)=C(NCCc2ccccc2)C(=O)c2ccccc21`: 1190 s; `Cc1cc(C)cc(Nc2nc(C)cc3nn(CC(=O)NC(C)C)c(=O)n23)c1`: 949 s.
Next, `O=C(Cn1nc2n(c1=O)CCCC2)N1CCN(c2ccc(F)cc2)CC1`: 651 s; `CCOc1ccc(NC(=O)N2c3ccccc3CC2c2nc(C3CC3)no2)cc1` (centres undefined): 982 s.
`CCc1ccc(NC(=O)Nc2ccc3nc(N4CCN(C)CC4)cc(C)c3c2)cc1` showed an RP-LC retention time of 609 s.
Next, `Cc1nnn(C23CC4CC(CC(C(=O)N5CCN(c6ccccn6)CC5)(C4)C2)C3)n1`: 597 s.
Next, `CC1(C(=O)NCc2ccc(F)cc2)Cn2cnc(C(=O)NCc3ccc(F)cc3)c2C(=O)N1C1CC1` (centres undefined): 777 s; `COCc1nncn1C1CCN(S(=O)(=O)c2ccccc2Cl)CC1`: 697 s.
Next, `CCN1C(=O)COc2ccc(-c3noc(Cc4ccc(OC)c(OC)c4)n3)cc21`: 923 s.
In turn, `Cc1ccc(CCN2CC(C(=O)N3CCN(c4cc(=O)n(C)c(=O)n4C)CC3)CC2=O)cc1` (centres undefined) returned an RP-LC retention time of 656 s.
Next, `COC(=O)c1ccc(Cn2cnc3c(Cl)ncnc32)cc1`: 790 s.
Next, `COc1ccc(NC(=O)Cn2c(C(C)C)nc3c(c2=O)CCN(Cc2ccccc2)C3)cc1OC`: 659 s.
Next, `Cc1cc(N2CCCC2)n2nc(CN3CCC4(CC3)OCCO4)nc2n1`: 572 s; `CCc1ccccc1NC(=O)C1CCCN(S(=O)(=O)c2cn(CC)cn2)C1` (centres undefined): 726 s; `CCOC(=O)C(=O)NCc1n[nH]c(=O)c2ccccc12`: 579 s.
`O=C(Cn1c(=O)c(S(=O)(=O)c2ccccc2)cc2ccccc21)N1CCCC1` displayed an RP-LC retention time of 757 s.
Next, `COC(=O)N1CCN(CCNC(=O)c2cccc3ccccc23)CC1`: 542 s.
As for `CCCc1nnsc1C(=O)NCc1nc(C)no1`, the RP-LC retention time is 656 s.
Next, `CCc1ccc(NC(=O)C2CCc3nc(N4CCOCC4)ncc3C2)cc1` (centres undefined): 835 s; `CCCCN(CCCC)C(=O)C1CCN(S(=O)(=O)c2ccc3c(c2)CCCC(=O)N3)CC1`: 905 s; `O=C(Cc1ccccc1F)Nc1ccc(-c2cn3c(C(=O)N4CCCC4)csc3n2)cc1`: 791 s.
Next, `Cc1c(CCC(=O)NCC2CCCO2)c(=O)n2nc(-c3ccccc3)nc2n1C` (centres undefined): 668 s; `CCN1CCC(N(Cc2ccc3c(c2)OCO3)C(=O)Nc2ccccc2)CC1`: 650 s; `O=C(NCCc1ccncc1)C1CCCN(c2nnc3ccc(C(F)(F)F)cn23)C1` (centres undefined): 537 s.
Next, `Cc1cc(Nc2cc(N3CCN(C)CC3)nc(/C=C/c3ccccc3)n2)n[nH]1`: 625 s; `O=C(Cn1cccc(-c2nc(-c3ccc(F)cc3)no2)c1=O)N1CCCC1`: 727 s; `CC1CCN(C(=O)c2cn(-c3ccc(-c4nc(C5CC5)no4)cn3)cn2)CC1`: 912 s.
`Cc1ccc(NC(=O)CC2COc3ccccc3NC2=O)cc1F` (centres undefined) displayed an RP-LC retention time of 769 s.
On to `CCNC(=O)c1c(-c2cccnc2)noc1C`, for which the RP-LC retention time stood at 583 s.
Next, `Cc1cc2nn(CC(=O)N3CCC(C)CC3)c(=O)n2c(-c2ccc(Cl)cc2)n1`: 867 s.
Compound `CCn1cc(S(=O)(=O)Nc2ccccc2F)c2cccnc21` returned an RP-LC retention time of 790 s.
Next, `CCc1nc(NC(=O)C2CC(=O)N(c3n[nH]c4cccc(F)c34)C2)sc1C` (centres undefined): 740 s.
Next, `CCCn1c(=O)c(C)nc2cc(-c3noc(C4CC(=O)N(C5CCCC5)C4)n3)ccc21` (centres undefined): 878 s; `Cc1cccc(Sc2nccnc2N2CCC(C(=O)NCCN3CCOCC3)CC2)c1`: 668 s; `COc1ccc(-c2nc(-c3cccc(-c4ccn[nH]4)c3)no2)cc1F`: 978 s.
Next, `Cc1cccc(OCc2ccc(-c3nc(C#N)c(NCCN(C)C)o3)o2)c1`: 708 s; `Cc1ccc(S(=O)(=O)N2CCc3c(c(-c4nnc(-c5ccc(F)cc5)o4)nn3C)C2)cc1Cl`: 1040 s; `O=C(Nc1ccccc1)N1CCOC(CN(CC2CCCO2)C(=O)c2ccc3c(c2)OCO3)C1` (centres undefined): 738 s.
The compound `COC(=O)C1=CC(=O)N2CCN=C2S1` gave an RP-LC retention time of 691 s.
Next, `Cc1ccc(-c2nnc(C)c(NCc3cccs3)n2)cc1`: 700 s; `COc1ccc(Cl)cc1N1CC(c2nc(-c3ccccc3F)no2)CC1=O` (centres undefined): 943 s; `O=C(CCCc1nc2cccnc2n1Cc1ccccc1)N1CCN(c2ccccn2)CC1`: 603 s.
In turn, `Cc1c2cnn(CC(=O)NCC3CCCO3)c(=O)c2c(C)n1Cc1ccccc1F` (centres undefined) had an RP-LC retention time of 747 s.
Next, `Cc1c(N2C(=O)[C@@H]3[C@H](O)CCN3C2=O)ccc(C#N)c1Cl`: 765 s.
Next, `CC(=O)N1CCC(c2nc(-c3ccc4c(c3)ncn4CCN3CCCC3)no2)CC1`: 553 s; `COCCN(C)Cc1ccc(CC2CCN(C(=O)C3(c4ccc(OC)cc4)CC3)CC2)cc1`: 691 s; `Cc1cc2nc(CSc3nnc(-c4cccc(Cl)c4)o3)cc(=O)n2o1`: 792 s.
On to `CC(C(=O)N1CCN(c2cc(-c3ccccc3)[nH]n2)CC1)c1ccccc1` (centres undefined), for which the RP-LC retention time came to 824 s.
The compound `CC(C)(C)c1[nH]cnc1/C=c1\[nH]c(=O)/c(=C/c2ccccc2)[nH]c1=O` had an RP-LC retention time of 806 s.
Next, `CC(=O)N1CCCc2cc(S(=O)(=O)CCC(=O)N3CCN(c4cccc(C)c4)C(C)C3)ccc21` (centres undefined): 750 s.
Next, `CCc1cc(C(=O)Nc2ccc(F)cc2C)nc2ccnn12`: 1140 s; `CC(C)OCCCNC(=O)CN1c2ccc(Br)cc2-c2ccccc2S1(=O)=O`: 961 s; `O=C(NCc1ccccc1C(F)(F)F)C1CCCN(c2nccnc2Sc2ccccc2)C1` (centres undefined): 1110 s.
Next, `CC(C)c1ccc2occ(CC(=O)N(Cc3ccc(N(C)C)cc3)C3CCS(=O)(=O)C3)c2c1` (centres undefined): 936 s.
In turn, `CC1CN=C2C=C(N3CCN(C(=O)NCc4cccc(F)c4)CC3)N=CN21` (centres undefined) gave an RP-LC retention time of 605 s.
Next, `CCC(CO)NCc1ccc(-c2ccc(F)cc2)o1` (centres undefined): 637 s; `Cc1ccc2c(c1)N(C(=O)Cn1cccc1-c1nc(-c3ccc4c(c3)OCO4)no1)CCO2`: 1160 s.
Next, `COc1ccc(CN2CCN(c3cnn4c(C5CC5)nnc4c3)CC2)cc1`: 544 s; `COc1cccc2c(NC(=O)c3ccccc3F)cc(C)nc12`: 579 s.
Next, `O=C(NCCCN1CCOCC1)C1CCN(c2nc3cccnc3s2)CC1`: 568 s; `CCS(=O)(=O)c1ccc2c(c1)N(Cc1nc(-c3ccc(OC(C)C)cc3)no1)C(=O)CO2`: 991 s.
For `CCc1ccc(-c2csc(NC3OC(=O)c4ccccc43)n2)cc1` (centres undefined), the RP-LC retention time is 833 s.
Next, `CCCN(Cc1ccccc1)Cc1cc(=O)n2cc(Cl)ccc2n1`: 649 s.
Next, `CCn1cnc(S(=O)(=O)N2CCC(C(=O)Nc3ccc(F)cc3)CC2)c1`: 709 s; `COc1ccc(NC(=O)N2[C@H]3CC[C@@H]2c2cncnc2C3)cc1F`: 649 s; `Cc1noc(-c2cccn2Cc2ccccc2F)n1`: 1050 s.

Source of the values: the METLIN SMRT retention time set (Domingo-Almenara et al. 2019).
